A short description of data set [1]: Mass balance: excretion of radioactivity in urine and feces (LSC). The format is in vivo, human. As for the experimental part: This study (ClinicalTrials.gov ID, NCT01436656) was a single‐center, open‐label study to investigate the ADME of encorafenib after a single oral administration of 100 mg (90 μCi) [^14C] encorafenib in healthy male subjects. A total of four evaluable subjects were enrolled and dosed. The study consisted of a screening period, a baseline period, a single dose treatment and a 96 h post‐dose observation period. A safety follow‐up assessment by phone was conducted 30 days after administration of 100 mg (90 μCi) [^14C] encorafenib. Subjects completed an overnight fast of at least 10 h prior to administration of the study drug. Subjects were discharged from the clinical site provided that the subject's recovery of [^14C] encorafenib‐related radioactivity was at least 90% of the administered dose. The study duration period could be prolonged if the subject's recovery of related radioactivity was less than 90% by the fifth‐day post‐treatment or the subject had two consecutive 24‐h combined urine and fecal collections yielding ≥1% of dose.
(§1) Venous blood samples (18 mL/time point) were collected by either direct venipuncture or from an indwelling cannula inserted into a vein of the forearm into tubes containing potassium ethylene diamine tetra acetic acid (K2‐EDTA) at the following times for metabolite characterization, total radioactivity and parent drug analysis: Pre‐dose, 0.5, 1, 1.5, 2, 3, 4, 6, 8, 12, 24, 48, 72, 96, 120 and 144 h post‐dose. Urine samples were collected into pre‐weighed, uniquely labeled containers pre‐dose (before drug administration) and at the following intervals: 0–4, 4–8, 8–24, 24–48, 48–72, 72–96, 96–120 and 120–144 h post‐dose. Feces samples were collected quantitatively into uniquely labeled, polypropylene containers pre‐dose (before drug administration) and individually until 144 h post‐dose. Urine and feces samples were frozen at −20°C and blood samples at −70°C.
Analysis of total radioactivity data in plasma, blood, feces, and urine was performed by Covance Laboratories Inc. All sample combustions were performed in a Model 307 Sample Oxidizer (Packard Instrument Company) and the resulting ^14CO2 was trapped in a mixture of Perma Fluor™ (Perkin Elmer) and Carbo Sorb® (Perkin Elmer). Oxidation efficiency was evaluated on each day of sample combustion by analyzing a commercial radiolabeled standard both directly in a scintillation cocktail and by oxidation. […] EcoLite™(+) scintillation cocktail was used for samples analyzed directly. All samples were analyzed for radioactivity in Model 2900TR or 2910TR liquid scintillation counters (Packard Instrument Company) for at least 5 min or 100 000 counts. […] All samples were analyzed in duplicate or triplicate, as applicable, if sample size allowed. If results from sample replicates (calculated as ^14C disintegrations per minute (dpm)/g sample) differed by more than 10% from the mean value and sample aliquots had radioactivity greater than 200 dpm, the sample was re‐homogenized or remixed and reanalyzed (if the sample size permitted).
Blood samples were mixed and duplicate aliquots of each (approximately 0.4 g) were combusted and analyzed by liquid scintillation […]. Plasma and urine samples were separately mixed and duplicate weighed aliquots of each (approximately 0.4 g for plasma and 0.2 g for urine) were analyzed directly by LSC. […] Feces samples were analyzed individually (samples were not combined by interval) and the weight of each individual sample was recorded. […]

Data set [2] in a line: Total radioactivity PK in whole blood. The class given is in vivo, human. The procedure:
as §1
Analysis of total radioactivity data in plasma, blood, feces, and urine was performed by Covance Laboratories Inc. All sample combustions were performed in a Model 307 Sample Oxidizer (Packard Instrument Company) and the resulting ^14CO2 was trapped in a mixture of Perma Fluor™ (Perkin Elmer) and Carbo Sorb® (Perkin Elmer). Oxidation efficiency was evaluated on each day of sample combustion by analyzing a commercial radiolabeled standard both directly in a scintillation cocktail and by oxidation. […] EcoLite™(+) scintillation cocktail was used for samples analyzed directly. All samples were analyzed for radioactivity in Model 2900TR or 2910TR liquid scintillation counters (Packard Instrument Company) for at least 5 min or 100 000 counts. Each sample was homogenized or mixed before radioanalysis (unless the entire sample was used for analysis). All samples were analyzed in duplicate or triplicate, as applicable, if sample size allowed. If results from sample replicates (calculated as ^14C disintegrations per minute (dpm)/g sample) differed by more than 10% from the mean value and sample aliquots had radioactivity greater than 200 dpm, the sample was re‐homogenized or remixed and reanalyzed (if the sample size permitted).
Blood samples were mixed and duplicate aliquots of each (approximately 0.4 g) were combusted and analyzed by liquid scintillation […]. Plasma and urine samples were separately mixed and duplicate weighed aliquots of each (approximately 0.4 g for plasma and 0.2 g for urine) were analyzed directly by LSC. Urine volumes provided by the Covance clinical research unit were entered as a weight assuming a specific gravity of 1 g/mL. Feces samples were analyzed individually (samples were not combined by interval) and the weight of each individual sample was recorded. A weighed amount of methanol:water (20:80, v:v; approximately 2 to 3 times the sample weight, such that the homogenate weight:sample weight ratio was approximately 3 to 4) was added and the sample was mixed and homogenized using a probe type homogenizer. Triplicate‐weighed aliquots (approximately 0.2 g) were combusted and analyzed by LSC. The empty treatment vial from each subject was analyzed by adding a weighed amount of methanol to each vial and analyzing duplicate weighed aliquots (approximately 0.5 g) of each extract by LSC. Residual radioactivity recovered from each treatment vial was subtracted from the dose administered to the appropriate subject.
The total radioactivity in blood and plasma was determined by LSC. Nominal sampling time points were used for deriving total radioactivity blood and plasma PK data. PK parameters (maximum concentration (C max), time to maximum concentration (T max), terminal half‐life(t 1/2) time to last measurable concentration (T last), area under the curve to the last measurable time point (AUClast), area under the curve extrapolated to infinity (AUCinf)) describing blood and plasma total radioactivity were determined using non‐compartmental methods via WinNonlin® Professional (Version 6.3, Pharsight). […]

Another data set deals with CYP3A4. On the set-up: method as in earlier work. The settings on record: cited from earlier work.
The mark [3] stands for this setting: mean, through last collection interval (144 h).
The mark [4] stands for this setting: whole blood, Median (Minimum–Maximum).

Where “and” joins values, the source holds several entries; their conditions need not be identical. Equal values may be shown once. Where only a bound is given, the exact number is not on record here.

With `COC(=O)N[C@@H](C)CNc1nccc(-c2cn(C(C)C)nc2-c2cc(Cl)cc(NS(C)(=O)=O)c2F)n1` [encorafenib], the “Fraction of oral absorption (Fa)” value in data set [1] (estimated from urine radioactivity plus fecal metabolites, assumes stability in feces and GI tract) is at least 86%. In addition, the “Mass balance (total radioactivity recovered)” value in data set [1] (mean ± SD of four subjects, by end of Day 6 (144 h post-dose)) is given as 94.5 ± 0.63 % dose. Moreover, in data set [1] (setting [3]), the “Radioactivity recovered in feces” value is 47.2 % of the dose; the “Radioactivity recovered in urine” value was 47.2 % of the dose and 47 % of the dose. Further, in data set [1] (single oral 100 mg [14C] encorafenib, urine + feces, bound holding for each subject), the “Overall recovery of radioactivity in the excreta, in all four subjects” value is ≥ 93.9% and > 90%. The “[blood]:[plasma] AUC ratio for total radioactivity” value in data set [2] (mean) is reported as 0.58. In data set [2] (mean (SD)), the “[blood]/[plasma] total radioactivity, 1 to 24 h post-dose” value is 0.59 [0.02]. In data set [2] (whole blood, Mean (SD)), the “AUCinf, total radioactivity” value is reported as 8950 (1310) ngEq*h/mL; the “Cmax, total radioactivity” value is on record as 1330 (103) ngEq/mL; the “T1/2, total radioactivity” value is 4.8 h and 4.8 (0.48) h. In addition, in data set [2] (setting [4]), the “AUCinf, total radioactivity” value was 8760 (7670–10 600) ngEq*h/mL; the “Cmax, total radioactivity” value is reported as 1320 (1230–1460) ngEq/mL; the “T1/2, total radioactivity” value is on record as 4.6 (4.5–5.5) h; the “Tmax, total radioactivity” value was 1.0 h. The “Contribution of CYP3A4 to metabolism” value in the data set with CYP3A4 is listed as 83%.

Values taken from paper PMC10541456, “A phase I, single‐center, open‐label study to investigate the absorption, distribution, metabolism and excretion of encorafenib following a single oral dose of 100 mg [ ^14C] encorafenib in healthy male subjects” (Pharmacology Research & Perspectives, 2023).
